Measurements: patent US12539292B2, “BRM targeting compounds and associated methods of use” (Arvinas Operations, Inc., priority 2018, dated 2026)

Biological target: T1, BRM (Homo sapiens, UniProt P51531)
T1 construct: In-Cell Western Screen of BRM Degradation in SW1573 Cells; endogenous in cells; host or cells: SW1573
Assay: In-cell Western screen of BRM degradation in SW1573 cells (Dmax and DC50)
Type: cell-based
Conditions: BRM degradation, SW1573 cells; for DC50: read-out: DC50; for Dmax: read-out: Dmax (% degraded)
In short: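 SW1573 cells were treated overnight (18-20 hours) with compound at 0.1% final DMSO. They were then PFA-fixed, permeabilised with Triton X-100 and immunostained with 800 nm/680 nm secondary antibodies. BRM signal was quantified by LI-COR in-cell Western imaging to derive Dmax and DC50.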

T1 sequence (P51531 whole entry): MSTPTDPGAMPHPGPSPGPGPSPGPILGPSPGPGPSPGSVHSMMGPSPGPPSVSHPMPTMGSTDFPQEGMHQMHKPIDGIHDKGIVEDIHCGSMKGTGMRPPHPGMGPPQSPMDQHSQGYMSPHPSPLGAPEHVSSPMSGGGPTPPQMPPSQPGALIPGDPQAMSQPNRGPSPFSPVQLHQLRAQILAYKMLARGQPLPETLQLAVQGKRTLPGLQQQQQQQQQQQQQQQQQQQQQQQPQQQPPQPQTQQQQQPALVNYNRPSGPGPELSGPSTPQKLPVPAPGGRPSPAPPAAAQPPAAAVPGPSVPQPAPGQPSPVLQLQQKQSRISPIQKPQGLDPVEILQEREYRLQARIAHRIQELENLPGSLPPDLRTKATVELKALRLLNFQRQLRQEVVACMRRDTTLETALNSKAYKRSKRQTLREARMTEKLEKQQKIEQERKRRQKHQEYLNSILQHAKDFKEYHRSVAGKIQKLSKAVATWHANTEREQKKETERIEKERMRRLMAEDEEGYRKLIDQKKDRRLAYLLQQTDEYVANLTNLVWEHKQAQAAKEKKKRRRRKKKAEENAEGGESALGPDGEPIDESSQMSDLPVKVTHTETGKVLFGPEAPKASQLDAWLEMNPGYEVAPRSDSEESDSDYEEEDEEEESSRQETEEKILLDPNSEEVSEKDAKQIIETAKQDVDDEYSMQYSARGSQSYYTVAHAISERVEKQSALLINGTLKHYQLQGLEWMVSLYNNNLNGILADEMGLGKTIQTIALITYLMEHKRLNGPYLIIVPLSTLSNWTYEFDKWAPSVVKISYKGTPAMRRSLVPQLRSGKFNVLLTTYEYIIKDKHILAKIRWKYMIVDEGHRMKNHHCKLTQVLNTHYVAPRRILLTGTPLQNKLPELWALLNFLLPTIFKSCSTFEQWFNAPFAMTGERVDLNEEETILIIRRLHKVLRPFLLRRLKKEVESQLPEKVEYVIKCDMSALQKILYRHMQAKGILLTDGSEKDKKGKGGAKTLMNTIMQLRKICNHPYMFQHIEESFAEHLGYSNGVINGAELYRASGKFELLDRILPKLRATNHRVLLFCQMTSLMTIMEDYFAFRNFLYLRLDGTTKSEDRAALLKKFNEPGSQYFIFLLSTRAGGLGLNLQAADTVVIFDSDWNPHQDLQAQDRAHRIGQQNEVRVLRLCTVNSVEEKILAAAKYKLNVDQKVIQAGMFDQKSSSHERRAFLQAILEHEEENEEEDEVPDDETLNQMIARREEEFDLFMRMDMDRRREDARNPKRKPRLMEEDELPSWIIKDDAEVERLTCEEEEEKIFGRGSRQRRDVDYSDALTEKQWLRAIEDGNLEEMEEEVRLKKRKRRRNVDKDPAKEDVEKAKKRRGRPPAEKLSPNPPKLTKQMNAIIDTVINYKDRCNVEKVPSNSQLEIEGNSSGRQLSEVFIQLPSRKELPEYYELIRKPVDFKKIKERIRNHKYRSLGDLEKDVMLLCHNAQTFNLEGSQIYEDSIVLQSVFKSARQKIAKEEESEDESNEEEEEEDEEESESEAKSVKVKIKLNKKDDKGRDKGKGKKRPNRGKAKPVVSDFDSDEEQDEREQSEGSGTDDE

Cc1ncsc1-c1ccc([C@H](C)NC(=O)[C@@H]2C[C@@H](O)CN2C(=O)[C@@H](c2cc(OCCN3CC[C@H](O[C@H]4C[C@H](Oc5cc(N6C7CCC6CN(c6cc(-c8ccccc8O)nnc6N)C7)ccn5)C4)C[C@H]3C)no2)C(C)C)cc1 [compound 628, (2S,4R)-1-((2R)-2-(3-(2-((2R,4S)-4-((1r,3S)-3-((4-(3-(3-amino-6-(2-hydroxyphenyl)pyridazin-4-yl)-3,8-diazabicyclo[3.2.1]octan-8-yl)pyridin-2-yl)oxy)cyclobutoxy)-2-methylpiperidin-1-yl)ethoxy)isoxazol-5-yl)-3-methylbutanoyl)-4-hydroxy-N-((S)-1-(4-(4-methylthiazol-5-yl)phenyl)ethyl)pyrrolidine-2-carboxamide]
DC50: < 2.5 nM
Dmax: > 75%

CC(C)[C@H](C(=O)N1C[C@H](O)C[C@H]1C(=O)N[C@@H](C)c1ccc(-c2scnc2N)cc1)c1cc(N2CCC(CN3CCC(O[C@H]4C[C@H](Oc5cc(N6C7CCC6CN(c6cc(-c8ccccc8O)nnc6N)C7)ccn5)C4)CC3)CC2)no1 [compound 629, (2S,4R)-1-((2S)-2-(3-(4-((4-((1r,3r)-3-((4-(3-(3-amino-6-(2-hydroxyphenyl)pyridazin-4-yl)-3,8-diazabicyclo[3.2.1]octan-8-yl)pyridin-2-yl)oxy)cyclobutoxy)piperidin-1-yl)methyl)piperidin-1-yl)isoxazol-5-yl)-3-methylbutanoyl)-N-((S)-1-(4-(4-aminothiazol-5-yl)phenyl)ethyl)-4-hydroxypyrrolidine-2-carboxamide]
DC50: 2.5 to 10 nM
Dmax: > 75%

CC(C)[C@@H](C(=O)N1C[C@H](O)C[C@H]1C(=O)N[C@@H](C)c1ccc(-c2scnc2N)cc1)c1cc(N2CCC(CN3CCC(O[C@H]4C[C@H](Oc5cc(N6C7CCC6CN(c6cc(-c8ccccc8O)nnc6N)C7)ccn5)C4)CC3)CC2)no1 [compound 630, (2S,4R)-1-((2R)-2-(3-(4-((4-((1r,3r)-3-((4-(3-(3-amino-6-(2-hydroxyphenyl)pyridazin-4-yl)-3,8-diazabicyclo[3.2.1]octan-8-yl)pyridin-2-yl)oxy)cyclobutoxy)piperidin-1-yl)methyl)piperidin-1-yl)isoxazol-5-yl)-3-methylbutanoyl)-N-((S)-1-(4-(4-aminothiazol-5-yl)phenyl)ethyl)-4-hydroxypyrrolidine-2-carboxamide]
DC50: < 2.5 nM
Dmax: > 75%

CC(C)[C@H](C(=O)N1C[C@H](O)C[C@H]1C(=O)N[C@@H](C)c1ccc(-c2ccnn2C)cc1)c1cc(N2CCC(CN3CCC(O[C@H]4C[C@H](Oc5cc(N6C7CCC6CN(c6cc(-c8ccccc8O)nnc6N)C7)ccn5)C4)CC3)CC2)no1 [compound 631, (2S,4R)-1-((2S)-2-(3-(4-((4-((1r,3r)-3-((4-(3-(3-amino-6-(2-hydroxyphenyl)pyridazin-4-yl)-3,8-diazabicyclo[3.2.1]octan-8-yl)pyridin-2-yl)oxy)cyclobutoxy)piperidin-1-yl)methyl)piperidin-1-yl)isoxazol-5-yl)-3-methylbutanoyl)-4-hydroxy-N-((S)-1-(4-(1-methyl-1H-pyrazol-5-yl)phenyl)ethyl)pyrrolidine-2-carboxamide]
DC50: < 2.5 nM
Dmax: > 75%

Cc1ncsc1-c1ccc([C@H](C)NC(=O)[C@@H]2C[C@@H](O)CN2C(=O)[C@@H](c2cc(OCCC3CCN(C[C@H]4C[C@H](C#CC(C)n5cc(-c6cc(-c7ccccc7O)nnc6N)cn5)C4)CC3)no2)C(C)C)cc1 (stereo partly drawn) [compound 632, (2S,4R)-1-((2S)-2-(3-(2-(1-(((1r,3S)-3-(3-(4-(3-amino-6-(2-hydroxyphenyl)pyridazin-4-yl)-1H-pyrazol-1-yl)but-1-yn-1-yl)cyclobutyl)methyl)piperidin-4-yl)ethoxy)isoxazol-5-yl)-3-methylbutanoyl)-4-hydroxy-N-((S)-1-(4-(4-methylthiazol-5-yl)phenyl)ethyl)pyrrolidine-2-carboxamide]
DC50: < 2.5 nM
Dmax: > 75%
